These are literature values, as cited in article PMC4110205 (Toxicology and applied pharmacology, 2014).

As usually defined, the Km is the concentration of substrate that gives half-maximal velocity. Broadly, the kcat is the maximal rate divided by the concentration of active sites.

The target of the data set is T1, hFMO2.1 (Homo sapiens, UniProt Q99518).
T1 sequence (Q99518 1-535): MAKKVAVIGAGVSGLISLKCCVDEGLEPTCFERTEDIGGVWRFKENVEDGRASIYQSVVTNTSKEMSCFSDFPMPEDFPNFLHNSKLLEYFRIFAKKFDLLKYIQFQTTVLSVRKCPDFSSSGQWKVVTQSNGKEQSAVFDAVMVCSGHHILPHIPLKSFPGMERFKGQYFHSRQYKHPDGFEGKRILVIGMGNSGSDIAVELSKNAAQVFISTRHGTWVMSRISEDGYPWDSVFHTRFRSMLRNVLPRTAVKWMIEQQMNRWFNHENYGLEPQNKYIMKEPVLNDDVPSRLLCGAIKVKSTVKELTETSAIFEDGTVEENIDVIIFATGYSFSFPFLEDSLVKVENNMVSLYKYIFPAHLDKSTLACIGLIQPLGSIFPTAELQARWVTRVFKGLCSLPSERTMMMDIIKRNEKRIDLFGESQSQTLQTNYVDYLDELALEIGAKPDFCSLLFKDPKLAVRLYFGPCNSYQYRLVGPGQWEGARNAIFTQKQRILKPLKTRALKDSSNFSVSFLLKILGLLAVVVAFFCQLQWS
To be noted: expressed hFMO2; ref Henderson et al., 2004.
In the case of `NC(N)=S` [Thiourea], the Km is 27 µM and the kcat was 0.85 s⁻¹.
For the molecule `S=C1NCCN1` [ethylenethiourea], the Km was 14 µM and the kcat is 0.8 s⁻¹.
Regarding `NC(=S)Nc1ccccc1` [phenylthiourea], the Km is 29 µM and the kcat was 0.4 s⁻¹.
Turning to `NC(=S)Nc1cccc2ccccc12` [α-naphthylthiourea], the Km is 42 µM and the kcat was 0.55 s⁻¹.
